Test results as given in patent USRE37999E1, “20-(B)-20,25-dihydroperoxy-3β-hydroxycholest-5-ene and 20-(S)-20,25-dihydroperoxy-3β-hydroxycholest-5-ene” (Iowa State University Research Foundation, Inc., priority 1988, dated 2003).
Where “and” joins values, the source holds several entries; their conditions need not be identical. Equal values may be shown once.

Experiments:
[1] = molecular target: calmodulin (Homo sapiens, UniProt P0DP23); assay: Inhibition of calmodulin activity (method of Leung et al. 1984); type: biochemical
Experimental: The inhibition of calmodulin activity by A and B were measured using the method described by Leung et al. (1984) and the results are shown in Table 1.
In still another experiment, inhibition of calmodulin by the same cholesterol hydroperoxides was tested. The calmodulin inhibition was assayed as described by Leung et al. (J. Biol. Chem., 259:2742-2747, 1984).

[2] = tested on: mouse peritoneal macrophages; assay: Esterification of cholesterol in mouse peritoneal macrophages (3H-oleate incorporation into cholesteryl ester); type: cell-based; conditions: 15 min preincubation
Experimental: The effects of cholesterol hydroperoxides on the esterification of cholesterol in mouse peritoneal macrophages was tested as follows:
Monolayers of mouse peritoneal macrophages were pretreated with various concentration of ⟦deleted by reissue: 20-(S)-hydroperoxy-cholest-5-ene-3β,25-diol hydroxycholesterol (A) or 20-(R)-hydroperoxycholest-5-ene-3β,25 diol (B) ⟧ 20-(S)-20,25-dihydroperoxy-3β-hydroxycholest-5-ene-(A) or 20-(R)-20,25-dihydroperoxy-3β-hydroxycholest-5-ene (B) at 37° C. After 15 min preincubation, medium M199 providing 2.5% fetal calf serum, acetyl-LDL (25 μg protein/ml) and ^3H-oleate (0.25 μCi/ml) was added to the culture dishes. After 6 hr of incubation with 5% CO2 at 37° C. the cellular lipids were extracted. This layer chromatography was used to separate cholesteryl ester from other lipid classes before the radioactivity was determined. The activities reported have been corrected for losses during chromatography and elution of the thin-layer plates.

[3] = tested on: acyl-Coenzyme-A:cholesterol acyltransferase (ACAT); assay: Inhibition of ACAT in mouse liver microsomes (14C-oleoyl-Coenzyme A); type: biochemical; conditions: 15 min pretreatment
Experimental: In another experiment, the inhibition of ⟦deleted by reissue: acrylCoenzyme-A:cholesterol ⟧ acyl-Coenzyme-A:cholesterol acyltransferase (ACAT) by cholesterol hydroperoxides, compounds A and B was used. Mouse liver microsomes (140 μg protein/assay) were treated with various concentrations of compounds A and B for 15 min prior to starting the assay by the addition of ^14C-oleoyl-Coenzyme A (41 μM, 0.068 μCi/assay). The reaction was carried on at 37° C. for exactly 5 min. then terminated by the addition of chloroform and methanol. The cellular lipids were extracted and separated by thin-layer chromatography.

[4] = tested on: mouse peritoneal macrophages; assay: Time course of incorporation of 3H-oleate into cholesterol esters by mouse peritoneal macrophages; type: cell-based; conditions: for inhibition of 3H-oleate incorporation into cholesterol esters (in words): 50 μM compound A or 25 μM compound B
Experimental: In a further experiment, the time course of incorporation of ^3H-oleate into the same cholesterol esters by mouse peritoneal macrophages was studied. Mouse peritoneal macrophages were gorwn in M199 medium containing 2.5% fetal calf serum and acetyl-LDL (25 μg protein/ml) for 18 hr at 37° C. The medium was then replaced by M199 containing 2.5% fetal calf serum; ^3H-oleate with 50 μM compound A or 25 μM compound B or no hydroperoxide. At the time intervals indicated, the medium was aspirated and the cellular lipid was extracted and analyzed by thin-layer chromatography.

[5] = tested on: rabbits fed an atherogenic diet; conditions: cited from earlier work
[6] = 0.01 μg compound preincubated with 0.3 units calmodulin, assay 30 C, 30 min
[7] = 0.1 μg compound preincubated with 0.3 units calmodulin, assay 30 C, 30 min
[8] = 1 μg compound preincubated with 0.3 units calmodulin, assay 30 C, 30 min
[9] = 2.5 μM hydroperoxide, 6 hr incubation with acetyl-LDL and 3H-oleate
[10] = 5 μM hydroperoxide, 6 hr incubation
[11] = 10 μM hydroperoxide, 6 hr incubation
[12] = 25 μM hydroperoxide, 6 hr incubation
[13] = 50 μM hydroperoxide, 6 hr incubation
[14] = 75 μM hydroperoxide, 6 hr incubation
[15] = 100 μM hydroperoxide, 6 hr incubation
[16] = 2.5 μM, 5 min reaction at 37° C
[17] = Table 1, Control + EDTA, amount not given
[18] = Table 9, EGTA, amount not given

CC(C)(CCC[C@](C)(OO)[C@H]1CC[C@H]2[C@@H]3CC=C4C[C@@H](O)CC[C@]4(C)[C@H]3CC[C@@]21C)OO [Compound A, 20-(S)-20,25-dihydroperoxy-3β-hydroxycholest-5-ene]
% inhibition [1, 6]: 28%
nmole P produced^i [1, 6]: 22.9 nmol
% inhibition [1, 7]: 68%
nmole P produced^i [1, 7]: 16.1 nmol
% inhibition [1, 8]: 92%
nmole P produced^i [1, 8]: 12.1 nmol
% inhibition ([1]; Table 9, 0.01 μg): 28%
nmoles phosphate produced ([1]; Table 9, 0.01 μg): 22.9 nmol
% inhibition ([1]; Table 9, 0.1 μg): 68%
nmoles phosphate produced ([1]; Table 9, 0.1 μg): 16.1 nmol
% inhibition ([1]; Table 9, 1 μg): 92%
nmoles phosphate produced ([1]; Table 9, 1 μg): 12.1 nmol
Counts per min 3H incorporated into cholesteryl ester [2, 9]: 55816 Counts per min and 47673 Counts per min
Counts per min 3H incorporated into cholesteryl ester [2, 10]: 59136 Counts per min
Counts per min 3H incorporated into cholesteryl ester [2, 11]: 33700 Counts per min and 29618 Counts per min
Counts per min 3H incorporated into cholesteryl ester [2, 12]: 14510 Counts per min and 17621 Counts per min
Counts per min 3H incorporated into cholesteryl ester [2, 13]: 6059 Counts per min
Counts per min 3H incorporated into cholesteryl ester [2, 14]: 5074 Counts per min and 5047 Counts per min
Counts per min 3H incorporated into cholesteryl ester [2, 15]: 2830 Counts per min and 3970 Counts per min
Counts per minute in cholesterol esters [3, 16]: 4702 Counts per minute and 4651 Counts per minute
Counts per minute in cholesterol esters ([3]; 5 μM, 5 min reaction): 4109 Counts per minute and 3420 Counts per minute
Counts per minute in cholesterol esters ([3]; 10 μM, 5 min reaction): 3033 Counts per minute and 5422 Counts per minute
Counts per minute in cholesterol esters ([3]; 16.7 μM, 5 min reaction): 1643 Counts per minute and 1206 Counts per minute
Counts per minute in cholesterol esters ([3]; 20 μM, 5 min reaction): 1652 Counts per minute and 1708 Counts per minute
Counts per minute in cholesterol esters ([3]; 25 μM, 5 min reaction): 1121 Counts per minute and 652 Counts per minute
Counts per minute in cholesterol esters ([3]; 33.3 μM, 5 min reaction): 841 Counts per minute and 1141 Counts per minute
Counts per minute in cholesterol esters ([3]; 50 μM, 5 min reaction): 632 Counts per minute and 573 Counts per minute
Counts per minute in cholesterol esters ([3]; 100 μM, 5 min reaction): 304 Counts per minute and 297 Counts per minute
inhibition of 3H-oleate incorporation into cholesterol esters (in words) ([4]; 5 min): apparent at the shortest time samples
Counts per minute in cholesterol ester ([4]; 50 μM compound A, 5 min): 2627 Counts per minute and 1994 Counts per minute
Counts per minute in cholesterol ester ([4]; 50 μM compound A, 10 min): 2462 Counts per minute and 3092 Counts per minute
Counts per minute in cholesterol ester ([4]; 50 μM compound A, 20 min): 5223 Counts per minute and 6049 Counts per minute
Counts per minute in cholesterol ester ([4]; 50 μM compound A, 30 min): 4007 Counts per minute and 2937 Counts per minute
Counts per minute in cholesterol ester ([4]; 50 μM compound A, 60 min): 4088 Counts per minute and 5295 Counts per minute
Counts per minute in cholesterol ester ([4]; 50 μM compound A, 120 min): 7269 Counts per minute and 10036 Counts per minute
Counts per minute in cholesterol ester ([4]; 50 μM compound A, 240 min): 19627 Counts per minute and 17564 Counts per minute

CC(C)(CCC[C@@](C)(OO)[C@H]1CC[C@H]2[C@@H]3CC=C4C[C@@H](O)CC[C@]4(C)[C@H]3CC[C@@]21C)OO [Compound B, 20-(R)-20,25-dihydroperoxy-3β-hydroxycholest-5-ene]
% inhibition [1, 6]: 4%
nmole P produced^i [1, 6]: 26.9 nmol
% inhibition [1, 7]: 61%
nmole P produced^i [1, 7]: 17.3 nmol
% inhibition [1, 8]: 81%
nmole P produced^i [1, 8]: 13.8 nmol
% inhibition ([1]; Table 9, 0.001 μg): 4%
nmoles phosphate produced ([1]; Table 9, 0.001 μg): 26.9 nmol
% inhibition ([1]; Table 9, 0.1 μg): 61%
nmoles phosphate produced ([1]; Table 9, 0.1 μg): 17.3 nmol
% inhibition ([1]; Table 9, 1 μg): 81%
nmoles phosphate produced ([1]; Table 9, 1 μg): 13.8 nmol
Counts per min 3H incorporated into cholesteryl ester [2, 9]: 41574 Counts per min and 34918 Counts per min
Counts per min 3H incorporated into cholesteryl ester [2, 10]: 32751 Counts per min
Counts per min 3H incorporated into cholesteryl ester [2, 11]: 25140 Counts per min and 16252 Counts per min
Counts per min 3H incorporated into cholesteryl ester [2, 12]: 7752 Counts per min and 6232 Counts per min
Counts per min 3H incorporated into cholesteryl ester [2, 13]: 4073 Counts per min
Counts per min 3H incorporated into cholesteryl ester [2, 14]: 3177 Counts per min and 3385 Counts per min
Counts per min 3H incorporated into cholesteryl ester [2, 15]: 4427 Counts per min and 2401 Counts per min
Counts per minute in cholesterol esters [3, 16]: 4557 Counts per minute and 3518 Counts per minute
Counts per minute in cholesterol esters ([3]; 5 μM, 5 min reaction): 1786 Counts per minute and 2336 Counts per minute
Counts per minute in cholesterol esters ([3]; 10 μM, 5 min reaction): 2499 Counts per minute and 1896 Counts per minute
Counts per minute in cholesterol esters ([3]; 16.7 μM, 5 min reaction): 920 Counts per minute and 964 Counts per minute
Counts per minute in cholesterol esters ([3]; 25 μM, 5 min reaction): 500 Counts per minute and 720 Counts per minute
Counts per minute in cholesterol esters ([3]; 33.3 μM, 5 min reaction): 429 Counts per minute and 563 Counts per minute
Counts per minute in cholesterol esters ([3]; 50 μM, 5 min reaction): 315 Counts per minute and 294 Counts per minute
Counts per minute in cholesterol esters ([3]; 100 μM, 5 min reaction): 131 Counts per minute and 244 Counts per minute
Counts per minute in cholesterol ester ([4]; 25 μM compound B, 5 min): 2218 Counts per minute and 1256 Counts per minute
Counts per minute in cholesterol ester ([4]; 25 μM compound B, 10 min): 2560 Counts per minute and 2019 Counts per minute
Counts per minute in cholesterol ester ([4]; 25 μM compound B, 20 min): 3245 Counts per minute and 4788 Counts per minute
Counts per minute in cholesterol ester ([4]; 25 μM compound B, 30 min): 3202 Counts per minute and 2943 Counts per minute
Counts per minute in cholesterol ester ([4]; 25 μM compound B, 60 min): 5054 Counts per minute and 7341 Counts per minute
Counts per minute in cholesterol ester ([4]; 25 μM compound B, 120 min): 7534 Counts per minute and 9160 Counts per minute
Counts per minute in cholesterol ester ([4]; 25 μM compound B, 240 min): 18532 Counts per minute and 15819 Counts per minute
inhibition of 3H-oleate incorporation into cholesterol esters (in words) ([4]; 5 min): apparent at the shortest time samples

O=C(O)CN(CCN(CC(=O)O)CC(=O)O)CC(=O)O [EDTA, reference compound]
% inhibition [1, 17]: 100%
nmole P produced^i [1, 17]: 10.7 nmol

O=C(O)CN(CCOCCOCCN(CC(=O)O)CC(=O)O)CC(=O)O [EGTA, reference compound]
% inhibition [1, 18]: 100%
nmoles phosphate produced [1, 18]: 10.7 nmol

CN(C)CCCN1c2ccccc2Sc2ccc(Cl)cc21 [chlorpromazine]
blood cholesterol [5]: without lowering of blood cholesterol
development of atherosclerotic lesions [5]: reduced the development of such lesions
